From patent US6214805A, “RNase L activators and antisense oligonucleotides effective to treat RSV infections” (priority 1997, dated 2001)
Values joined by “and” are separate entries in the source; they are usually repeats but may differ in a detail not shown here. Equal values may be shown once.

Legend:
RSV strain A2 [1] = experiment: Inhibition of RSV replication in RSV-infected 9HTE cells, virus plaque assay on CV-1 cells at 36 h post-infection; type: cell-based, Respiratory syncytial virus; conditions: 9HTE cells; for % Inhibition of RSV replication: M.O.I. 2.0, 36 hrs post-infection
Description: To develop 2-5A antisense chimeras with the potential to block RSV replication, an oligonucleotide binding site in the viral RNA polymerase (RSV L) mRNA, which encodes a low abundance message that is absolutely required for RSV replication was selected. The first chimera synthesized and evaluated was pA4 -antiRSV/(8490-8509). The binding sites for the chimeric oligonucleotide's antisense domain are to the transcripts of nucleotides 8490-8509 in the RSV genome, which spans the translation start codon for the L protein, and to nucleotides 8490-8509 of the antigenomic strand (the template for reproduction of the genome). Since to function as an effective treatment, a candidate agent must be able to inhibit viral replication subsequent to diagnosis, the anti-RSV effect of the 2-5A antisense chimera was determined on human tracheal epithelial cells, 9HTE, with treatments beginning either 4 h before RSV infection (pre-/post-infection treatments) or 2 h following infection (post-infection treatments). In the post-infection treatments, pA4 -antiRSV/([…]), was added at t+2, t+14 and t+26, (numbers represent time in h relative to time of infection, 0) For pre-infection treatment, pA4 -antiRSV/(8490-8509) (10 μM final concentration), was added at t-4, and t0 in addition to […]; t+14 and t+26. Virus harvested from control and oligonucleotide-treated 9HTE cells was measured by infecting CV-1 cells and subsequently counting viral plaques. […] On the basis of these experiments, all subsequent experiments were performed with post-infectiontreatments only. Additionally, these experiments indicate the potential use of these compounds as a treatment for active infection as compared to a prophylactic measure.
The human tracheal epithelial cell line, 9HTE, (Gruenert et al., 1988) and CV-1 cells, (American Type Culture Collection, Rockville, Md., CCI#70) a green monkey kidney cell line which is highly permissive to RSV infection, were cultured in minimal essential medium (MEM) supplemented with 10% (v/v) fetal bovine serum (FBS), 2 mM L-glutamine, 1× MEM amino acids solution, 1× MEM non-essential amino acids solution, 100 U/ml penicillin, 100 μg/ml streptomycin and 0.25 μg/ml amphotericin B ("culture medium") (all reagents from Gibco BRL, Bethesda, Md.). RSV strain A2 (ATCC No. VR1302) was propagated in CV-1 cells. CV-1 monolayers were infected at a multiplicity of infection (M.O.I.) of 0.2 and cultured 46 h in MEM, 2% FBS, 1× Penicillin/Streptomycin (PS) in 5% CO2, 95% O2 at 37° C. Cells were then washed 2 times in MEM and subsequently covered in MEM, 2% FBS, 1× PS, 50 mM HEPES (pH7.5), 100 mM Mg(SO4). After 2 h at 37° C., cells were scraped and sonicated as previously described (Panuska et al., 1995). Aliquots (1 ml each) of cell sonicates were flash frozen in ethanol/dry ice within 20 min of scraping. Several aliquots were then thawed and titered by a plaque assay on CV-1 cells as previously described (Cirino et al., 1993). The range of virus yield from this procedure was 2 to 7×10^6 plaque forming units (pfu) per ml.
Infection of 9HTE cells was performed as previously described (Merolla et al., 1994). Briefly, confluent monolayers were exposed to RSV diluted in MEM, 2% FBS, for 2 h at 37° C. in 5% CO2, 95% O2. After exposure, cells were washed two times with serum-free MEM media and then fresh culture media (with 10% FBS) was added. Oligonucleotides were either added 4 h prior to infection (t-4) or immediately after infection (t+2) and also at t+14 and t+26. Cells were harvested for plaque assays at 36 h post-infection to determine viral titers as previously described (Cirino et al., 1993). Cells were washed twice to remove any residual antisense and were then scraped in MEM containing 2% FBS, 1× PS. 9HTE cells were sonicated for 20 sec on ice then the extracts were serially diluted and transferred to a confluent monolayer of CV-1 for quantitation of infectious viral particles. […]

RSV strain A2 [2] = experiment: CPE inhibition assay in HEp-2 cells; type: cell-based, Respiratory syncytial virus; conditions: Table 10, CPE, HEp2; for EC50: read-out: EC50
Experimental: The CPE inhibition assay used in this study was performed as described by Sidwell and Huffman (Sidwell et al., 1971, Appl. Microbiol. 22:7979-7801) with slight modifications. Varying concentrations of test compounds were added to each plate containing near confluent cell monolayers (1×10^5 cells/well) followed immediately by the addition of virus at a multiplicity of infection (MOI)=0.01, and then incubated at 37° C. […] All compounds were assayed for virus inhibition in quadruplicate and for cytotoxicity in duplicate. For each compound, two wells were set aside as uninfected, untreated cell controls per test and four wells per test received virus only and represented controls for virus replication. […] For all CPE-based assays, the 50% effective concentration (EC50) was calculated by regression analysis using the means of the CPE ratings at each concentration of compound.

Hep-2 Cells [3] = experiment: Cytotoxicity by morphological changes in HEp-2 cells (CPE inhibition assay); type: cell-based, human; conditions: Table 10, CPE, HEp2
Experimental: (§1) Embryonic African green monkey kidney cells (MA-104) were obtained from BioWhittaker, Inc. (Walkersville, Md.). HEp-2 cells were propagated from a human epidermoid carcinoma of the larynx (American Type Culture Collection, ATCC; Rockville, Md.). The cells were grown in minimal essential medium. (MEM, Gibco-BRL, Gaitherburg, Md.) supplemented with 0.1% NaHCO3 and 10% fetal bovine serum (FBS, Hyclone Laboratories, Logan Utah.). When performing antiviral assays, serum was reduced to 2% and 50 μg/ml gentamicin (Sigma Chemical Company, St. Louis, Mo.) was added to the medium.
Morphological changes due to compound cytotoxicity were graded on a scale of 0-5; grade 5 was defined as 100% cytotoxicity. The 50% cytotoxic dose (IC50 was calculated by regression analysis. A selective index (S.I.) was calculated for each compound [S.I.=(IC50)/(EC50 ].

RSV strain A2 [4] = experiment: Neutral red uptake assay of CPE inhibition in HEp-2 cells; type: cell-based, Respiratory syncytial virus; conditions: Table 11, neutral red, HEp2; for EC50: read-out: EC50
Experimental: (§2) This assay was performed by a modified method as described by Cavenaugh et al. (Cavenaugh et al. 1990, Invest. New Drugs 8:347-354). Briefly, medium was removed from each well of a plate scored for CPE from a CPE inhibition assay, 0.2 ml of neutral red (0.034% in PSS) was added to each of the wells of that plate and the plate incubated for 2 hr at 37° C. in the dark. The neutral red solution was removed from the wells and the wells rinsed twice with PBS (pH 7.4). Equal volumes (0.1 ml) of absolute ethanol and Sorenson citrate buffer (0.1 M sodium citrate, 0.1 M HCI, pH 4.2) were mixed together and added to each well. Plates were incubated in the dark for 30 min. at room temperature to solubilize the dye. The plates were then gently mixed on a 96-well plate adapted vortexer for 1 min. Absorbances at 540 nm and 450 nm were read with a microplate reader (Bio-Tek EL 1309; Bio-Tek Instruments, Inc. Winooski, Vt.). Absorbance values were expressed as percents of untreated controls and EC50 and IC50 values were calculated by regression analysis.

Hep-2 Cells [5] = experiment: Neutral red uptake assay of cytotoxicity in HEp-2 cells; type: cell-based, human; conditions: Table 11, neutral red, HEp2
Experimental: as §1, §2

[6] = 3.3 μM oligonucleotide/treatment at t+2, t+14, t+26 h
[7] = 6.6 μM oligonucleotide/treatment at t+2, t+14, t+26 h
[8] = 9.9 μM oligonucleotide/treatment at t+2, t+14, t+26 h
[9] = q.d. 1 day (added along with virus, never replenished)

“spA2'p(A2'p)3 -[(Bu)p]2 -(5'aat ggg atc cat ttt gtc cc3') [spA4-antiRSV/(8490-8509)]” was tested, and the “% Inhibition of RSV replication” value (RSV strain A2 [1]; [6]) was 16.5%, the “% Inhibition of RSV replication” value (RSV strain A2 [1]; [7]) was 71% and the “% Inhibition of RSV replication” value (RSV strain A2 [1]; [8]) was 94%.
In the case of “spA2'p(A2'p)3 -[(Bu)p]2 -(5'gat tga aat ata gtg tgt3'-3't5') [spA4-antiRSV3'-3'T/(8261-8279)]”, the “% Inhibition of RSV replication” value (RSV strain A2 [1]; [6]) is reported as 78%, the “% Inhibition of RSV replication” value (RSV strain A2 [1]; [7]) is reported as 87% and the “% Inhibition of RSV replication” value (RSV strain A2 [1]; [8]) is reported as 87%.
With “pA2'p(A2'p)3 -[(Bu)p]2 -(3'ccc tgt ttt acc tag ggt aa5') [pA4-3'antiRSV5'/(8490-8509)]” the “% Inhibition of RSV replication” value (RSV strain A2 [1]; [8]) was 69%.
In the case of “spA2'p(A2'p)3 -[(Bu)p]2 -(5'gat aag gac cat tga ata t3'-3'g5') [spA4-antiRSV3'-3'G/(8599-8618)]”, the “% Inhibition of RSV replication” value (RSV strain A2 [1]; [6]) is reported as 43% and 44%.
“pA2'p(A2'p)3 -[(Bu)p]2 -(5'aat ggg atc cat ttt gtc c3'-3'c5') [pA4-antiRSV3'-3'C/(8490-8509)]” was tested, and the “% Inhibition of RSV replication” value (RSV strain A2 [1]; [6]) was 2%, the “% Inhibition of RSV replication” value (RSV strain A2 [1]; [7]) was 64.3% and 38.8% and the “% Inhibition of RSV replication” value (RSV strain A2 [1]; [8]) was 64.8% and 74%.
“spA2'p(A2'p)3 -[(Bu)p]2 -(5'ctc tga gaa aga gat aa3'-3'c5') [spA4-antiRSV3'-3'C/(8561-8578)]” was tested, and the “% Inhibition of RSV replication” value (RSV strain A2 [1]; [6]) was 57%.
In the case of “spA2'p(A2'p)3 -[(Bu)p]2 -(5'ata gtg tgt tct ttt gat t3'-3'a5') [spA4-antiRSV3'-'3A/(8251-8270)]”, the “% Inhibition of RSV replication” value (RSV strain A2 [1]; [6]) is reported as 86.7% and the “% Inhibition of RSV replication” value (RSV strain A2 [1]; [7]) is reported as 92%.
“pA2'p(A2'p)3 -[(Bu)p]2 -(5'aat ggg atc cat ttt gtc cc3') [pA4-antiRSV/(8490-8509)]” was tested, and the “% Inhibition of RSV replication” value (RSV strain A2 [1]; [6]) was 3%, the “% Inhibition of RSV replication” value (RSV strain A2 [1]; [7]) was 38.8% and the “% Inhibition of RSV replication” value (RSV strain A2 [1]; [8]) was 64.8%. The “inhibition of RSV replication” value (RSV strain A2 [1]; post-infection treatment, 10 μM at t+2, t+14, t+26) was “about 70%” and the “inhibition of RSV replication” value (RSV strain A2 [1]; pre-/post-infection treatment, 10 μM at t-4, t0 and after infection) was “about 70%”.
For “sp(5'A2')4 BupBupd(GsAsTsAGAAATAGAAAsGsCsA) (antisense GATAGAAATAGAAAGCA; chemistry not fully specified) [MP426, 2-5A-antisense control with scrambled antisense domain of MP351]”, the SI (RSV strain A2 [2]; B.I.D. 2 days) was greater than 32, the SI (RSV strain A2 [2]; B.I.D. 3 days) was 16 and the EC50 (RSV strain A2 [2]; B.I.D. 3 days) was 0.2 µM. The SI (RSV strain A2 [2]; B.I.D. 4 days) was 3.2, the EC50 (RSV strain A2 [2]; [9]) was greater than 3.2 µM and the SI (RSV strain A2 [2]; q.d. 3 days) was greater than 1. The EC50 (RSV strain A2 [2]; q.d. 3 days) was 3.2 µM, the SI (RSV strain A2 [2]; q.d. 4 days) was greater than 3.2 and the IC50 (Hep-2 Cells [3]; B.I.D. 2 days) was greater than 3.2 µM. For the same substance, the IC50 (Hep-2 Cells [3]; B.I.D. 3 days) was 3.2 µM, the IC50 (Hep-2 Cells [3]; B.I.D. 4 days) was 3.2 µM and the IC50 (Hep-2 Cells [3]; [9]) was greater than 3.2 µM. It also gave an IC50 (Hep-2 Cells [3]; q.d. 3 days) greater than 3.2 µM, an IC50 (Hep-2 Cells [3]; q.d. 4 days) greater than 3.2 µM and an SI (RSV strain A2 [4]; B.I.D. 2 days) greater than 11. It also gave an EC50 (RSV strain A2 [4]; B.I.D. 2 days) of 0.3 µM, an SI (RSV strain A2 [4]; B.I.D. 3 days) of 3.2 and an EC50 (RSV strain A2 [4]; B.I.D. 4 days) greater than 3.2 µM. The EC50 (RSV strain A2 [4]; [9]) was greater than 3.2 µM, the EC50 (RSV strain A2 [4]; q.d. 3 days) was greater than 3.2 µM and the EC50 (RSV strain A2 [4]; q.d. 4 days) was greater than 3.2 µM. The IC50 (Hep-2 Cells [5]; B.I.D. 2 days) was greater than 3.2 µM, the IC50 (Hep-2 Cells [5]; B.I.D. 3 days) was 3.2 µM and the IC50 (Hep-2 Cells [5]; B.I.D. 4 days) was 3.2 µM. It also gave an IC50 (Hep-2 Cells [5]; [9]) greater than 3.2 µM, an IC50 (Hep-2 Cells [5]; q.d. 3 days) of 3.2 µM and an IC50 (Hep-2 Cells [5]; q.d. 4 days) of 3.2 µM.
With “A2'p(A2'p)3 -[(Bu)p]2 -(5'aat ggg atc cat ttt gtc c3'-3'c5') [A4-antiRSV3'-3'C/(8490-8509)]” the “% Inhibition of RSV replication” value (RSV strain A2 [1]; [7]) was 20% and the “% Inhibition of RSV replication” value (RSV strain A2 [1]; [8]) was 28.3%.
